For one assay, the system named is CHO. Briefly: CHO cell viability loss, potency – luminescence, cytotoxicity control for TLR9-MyD88 binding inhibitor project, dose response (AID 588339).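 Further: CHO cells stably coexpressing TLR9 and MyD88 fusions from primary screen; compound exposure lasted 48 hours before viability readout.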 The format is functional, cell-based, hamster. To be noted: Cricetulus griseus.
Assay [1] has as its target Glycogen synthase kinase-3 alpha (Homo sapiens, UniProt P49840). Briefly: Inhibition of Human GSK-3 alpha Activity Measured in Biochemical System Using Microfluidics - 2063-06_Inhibitor_Dose_DryPowder_Activity. [Related pubchem assays (depositor defined):AID2709].
Assay [2] has as its target Glycogen synthase kinase-3 beta (Homo sapiens, UniProt P49841). Put plainly: Inhibition of Human GSK-3 beta Activity Measured in Biochemical System Using Microfluidics - 2063-05_Inhibitor_Dose_DryPowder_Activity. [Related pubchem assays (depositor defined):AID2709].
The target in assay [3] is DNA dC->dU-editing enzyme APOBEC-3G (Homo sapiens, UniProt Q9HC16). Briefly: inhibition of APOBEC3G ssDNA deamination – biochemical, fluorescence, single-stranded DNA substrate, SAR follow-up (AID 602136). The format is functional. As to conditions: read-out: IC50_Mean.
Sequence of DNA dC->dU-editing enzyme APOBEC-3G (Q9HC16 whole entry): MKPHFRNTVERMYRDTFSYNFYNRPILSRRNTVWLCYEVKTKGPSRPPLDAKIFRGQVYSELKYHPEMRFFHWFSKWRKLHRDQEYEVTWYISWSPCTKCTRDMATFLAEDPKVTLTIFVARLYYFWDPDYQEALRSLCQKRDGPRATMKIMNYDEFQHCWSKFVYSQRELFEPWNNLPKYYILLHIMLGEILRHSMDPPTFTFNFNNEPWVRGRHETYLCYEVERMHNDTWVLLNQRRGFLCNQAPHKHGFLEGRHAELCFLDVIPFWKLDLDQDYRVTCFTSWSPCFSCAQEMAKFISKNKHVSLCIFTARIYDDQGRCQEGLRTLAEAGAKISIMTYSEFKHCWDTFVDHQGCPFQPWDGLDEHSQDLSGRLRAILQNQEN
Assay [4] deals with DNA dC->dU-editing enzyme APOBEC-3A (Homo sapiens, UniProt P31941). Briefly: SAR analysis of small molecule inhibitors of APOBEC3A DNA Deaminase via a fluorescence-based single-stranded DNA deaminase assay. Type of assay: functional. To be noted: read-out: IC50_Mean.
Sequence of DNA dC->dU-editing enzyme APOBEC-3A (P31941 whole entry): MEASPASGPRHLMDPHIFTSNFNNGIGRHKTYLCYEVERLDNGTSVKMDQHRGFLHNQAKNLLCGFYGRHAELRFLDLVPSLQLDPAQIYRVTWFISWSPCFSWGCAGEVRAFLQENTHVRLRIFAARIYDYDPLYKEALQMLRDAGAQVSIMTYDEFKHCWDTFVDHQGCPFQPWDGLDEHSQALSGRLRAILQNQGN
In assay [5] the test system is INS1. Briefly: beta-cell survival under cytokine stress – INS-1E, ATP luminescence, dry powder, dose response (AID 488844). The format is functional, cell-based. To be noted: Rattus norvegicus.
Assay [6] in a line: suppression of NO production in INS-1E cells – cell-based, Griess absorbance, dry powder, set 3, dose response (AID 488870). As to conditions: Rattus norvegicus. Type of assay: functional. In general terms: Griess reagent forms a coloured azo dye with nitrite.
In assay [7] the test system is INS1. Briefly: INS-1E mitochondrial potential loss inhibitors – cell-based, JC-1 fluorescence, dry powder, set 2, dose response (AID 488867). The format is functional. To be noted: Rattus norvegicus.
For assay [8], the system named is INS1. Briefly: suppression of NO production in INS-1E cells – cell-based, Griess absorbance, dry powder, set 2, dose response (AID 488868). The format is functional. As to conditions: Rattus norvegicus.
In assay [9] the target is T1, Beta-adrenergic receptor kinase 1 (Homo sapiens, UniProt P25098). Briefly: aptamer displacement from bead-bound GRK2 – biochemical, cherry pick 1, bead flow cytometry, dose response (AID 504500). In general terms: Flow cytometry measures light scatter and fluorescence of single cells or particles in a stream.
T1 sequence (P25098 whole entry): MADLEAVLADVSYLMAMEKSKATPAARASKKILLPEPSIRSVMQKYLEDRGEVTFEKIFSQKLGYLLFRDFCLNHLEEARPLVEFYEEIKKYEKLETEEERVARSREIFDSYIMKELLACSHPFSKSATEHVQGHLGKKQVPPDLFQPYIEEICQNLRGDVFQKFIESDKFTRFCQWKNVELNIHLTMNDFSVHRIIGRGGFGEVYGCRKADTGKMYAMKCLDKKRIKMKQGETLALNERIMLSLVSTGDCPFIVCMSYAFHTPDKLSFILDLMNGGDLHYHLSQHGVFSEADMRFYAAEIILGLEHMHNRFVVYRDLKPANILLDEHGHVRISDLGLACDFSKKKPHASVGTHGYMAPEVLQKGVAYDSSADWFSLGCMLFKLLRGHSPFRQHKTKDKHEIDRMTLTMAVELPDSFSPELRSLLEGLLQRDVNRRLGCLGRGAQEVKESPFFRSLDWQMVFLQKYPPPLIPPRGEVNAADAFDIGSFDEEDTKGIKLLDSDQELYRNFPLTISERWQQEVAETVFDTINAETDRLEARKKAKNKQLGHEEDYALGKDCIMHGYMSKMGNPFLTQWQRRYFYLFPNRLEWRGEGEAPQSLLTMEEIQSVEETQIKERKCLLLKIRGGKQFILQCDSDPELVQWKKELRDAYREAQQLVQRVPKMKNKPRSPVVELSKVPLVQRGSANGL
For assay [10], the target named is T1, Beta-adrenergic receptor kinase 1. Put plainly: blockers of aptamer binding to GRK2 – biochemical, flow cytometry beads, FAM-aptamer, powder set 1, dose response (AID 588720).
Assay [11] addresses T2, Carboxy-terminal domain RNA polymerase II polypeptide A small phosphatase 1 (Homo sapiens, UniProt Q9GZU7).
T2 sequence (Q9GZU7 whole entry): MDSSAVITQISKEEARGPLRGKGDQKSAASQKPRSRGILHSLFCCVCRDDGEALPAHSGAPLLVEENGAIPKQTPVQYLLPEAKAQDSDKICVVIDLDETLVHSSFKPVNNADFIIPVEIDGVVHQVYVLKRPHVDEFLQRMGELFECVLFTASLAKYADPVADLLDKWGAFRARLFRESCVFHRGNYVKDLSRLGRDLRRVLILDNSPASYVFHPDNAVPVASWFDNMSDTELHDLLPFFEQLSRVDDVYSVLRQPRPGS
Put plainly: CTDSP1 inhibitors, concentration-response, biochemical, absorbance readout, ultra-high-throughput screen actives (AID 540297). The format is functional.

Assay [12] deals with DNA (cytosine-5)-methyltransferase 1 (Homo sapiens, UniProt P26358). Briefly: inhibition of DNA methylation by DNMT1 – biochemical, fluorescent molecular beacon, confirmation (AID 602386). Type of assay: functional.
Sequence of DNA (cytosine-5)-methyltransferase 1 (P26358 whole entry): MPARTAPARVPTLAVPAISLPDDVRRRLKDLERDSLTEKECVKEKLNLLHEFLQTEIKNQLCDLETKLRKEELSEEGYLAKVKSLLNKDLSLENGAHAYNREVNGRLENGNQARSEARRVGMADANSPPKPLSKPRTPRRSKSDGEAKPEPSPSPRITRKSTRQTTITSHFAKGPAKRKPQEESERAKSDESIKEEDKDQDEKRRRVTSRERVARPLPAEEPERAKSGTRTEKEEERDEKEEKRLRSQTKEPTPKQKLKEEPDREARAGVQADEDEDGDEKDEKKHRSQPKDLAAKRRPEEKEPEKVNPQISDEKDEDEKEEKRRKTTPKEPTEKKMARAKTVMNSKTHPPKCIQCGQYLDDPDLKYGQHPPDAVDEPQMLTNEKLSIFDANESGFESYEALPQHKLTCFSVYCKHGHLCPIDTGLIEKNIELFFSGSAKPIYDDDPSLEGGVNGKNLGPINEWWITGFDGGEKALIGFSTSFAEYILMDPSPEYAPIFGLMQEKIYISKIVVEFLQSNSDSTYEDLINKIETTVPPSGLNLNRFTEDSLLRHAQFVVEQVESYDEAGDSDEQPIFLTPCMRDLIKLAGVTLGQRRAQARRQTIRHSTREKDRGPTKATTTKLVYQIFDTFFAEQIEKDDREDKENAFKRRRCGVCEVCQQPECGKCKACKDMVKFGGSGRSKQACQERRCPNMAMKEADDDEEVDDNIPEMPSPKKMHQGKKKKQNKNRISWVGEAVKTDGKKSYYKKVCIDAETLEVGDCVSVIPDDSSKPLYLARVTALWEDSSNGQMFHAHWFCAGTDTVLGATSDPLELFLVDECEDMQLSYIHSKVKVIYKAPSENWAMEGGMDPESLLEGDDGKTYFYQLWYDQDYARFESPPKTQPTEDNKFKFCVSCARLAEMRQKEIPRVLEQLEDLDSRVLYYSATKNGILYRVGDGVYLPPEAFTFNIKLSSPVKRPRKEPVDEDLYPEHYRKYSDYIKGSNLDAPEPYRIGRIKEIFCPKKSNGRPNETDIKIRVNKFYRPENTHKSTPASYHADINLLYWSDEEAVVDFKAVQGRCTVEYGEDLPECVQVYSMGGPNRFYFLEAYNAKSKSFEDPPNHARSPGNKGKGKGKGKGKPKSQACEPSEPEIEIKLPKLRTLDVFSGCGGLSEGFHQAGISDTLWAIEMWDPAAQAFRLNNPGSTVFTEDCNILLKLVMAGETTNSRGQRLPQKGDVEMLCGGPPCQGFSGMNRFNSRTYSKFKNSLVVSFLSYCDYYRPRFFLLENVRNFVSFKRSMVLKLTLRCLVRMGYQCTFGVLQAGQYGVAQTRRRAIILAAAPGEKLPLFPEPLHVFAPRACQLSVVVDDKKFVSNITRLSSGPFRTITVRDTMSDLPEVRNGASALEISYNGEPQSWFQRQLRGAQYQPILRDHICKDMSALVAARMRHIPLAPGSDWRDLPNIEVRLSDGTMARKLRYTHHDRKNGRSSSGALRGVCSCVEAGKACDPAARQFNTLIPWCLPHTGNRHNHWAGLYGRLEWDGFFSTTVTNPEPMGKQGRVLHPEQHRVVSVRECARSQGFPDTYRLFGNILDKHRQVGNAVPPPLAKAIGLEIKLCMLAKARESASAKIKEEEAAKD
A short description of assay [13]: THP-1 cell cytotoxicity, cytotoxicity control, set 4 (AID 504911). Type of assay: functional. To be noted: Mycobacterium tuberculosis.
Assay [14] can be described thus: THP-1 cell cytotoxicity, dose response, cytotoxicity control, set 3 (AID 504852). Type of assay: functional. To be noted: Mycobacterium tuberculosis.
Assay [15] is described as follows: Vero cell cytotoxicity, dose response, cytotoxicity control for M. tuberculosis growth inhibitor project, Vero cells, purified and synthesized compounds, set 4 (AID 504854). The format is functional. To be noted: Mycobacterium tuberculosis.
For assay [16], the target named is Voltage-gated inwardly rectifying potassium channel KCNH2 (Homo sapiens, UniProt Q12809). To be noted: Potency.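 Further: confirmatory quantitative high-throughput screen measuring inhibition of hERG channel activity.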
A further assay addresses DNA topoisomerase (Yersinia pestis, UniProt A0A2S9PM60). Briefly: Yersinia topoisomerase I cleavage product accumulation – biochemical, cherry-pick, dose response (AID 588525).
Assay [17] deals with T3, Sentrin-specific protease 8 (Homo sapiens, UniProt Q96LD8).
T3 sequence (Q96LD8 whole entry): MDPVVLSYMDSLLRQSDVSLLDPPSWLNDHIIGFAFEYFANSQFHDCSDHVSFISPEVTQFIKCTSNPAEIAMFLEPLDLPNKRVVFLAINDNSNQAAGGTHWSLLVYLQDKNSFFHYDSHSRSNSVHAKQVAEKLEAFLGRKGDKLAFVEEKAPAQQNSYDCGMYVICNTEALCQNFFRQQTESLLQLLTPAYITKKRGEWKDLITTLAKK
Put plainly: inhibition of human SENP8 cleavage activity – biochemical, luminescence, SAR follow-up (AID 504501). Type of assay: functional.

Assay [18] concerns the target T3, Sentrin-specific protease 8. Briefly: inhibition of sentrin protease 8 – biochemical, luminescence, set 2, SAR follow-up (AID 588601). Type of assay: functional.
A further assay deals with T4, Caspase-3 (Homo sapiens, UniProt P42574).
T4 sequence (P42574 whole entry): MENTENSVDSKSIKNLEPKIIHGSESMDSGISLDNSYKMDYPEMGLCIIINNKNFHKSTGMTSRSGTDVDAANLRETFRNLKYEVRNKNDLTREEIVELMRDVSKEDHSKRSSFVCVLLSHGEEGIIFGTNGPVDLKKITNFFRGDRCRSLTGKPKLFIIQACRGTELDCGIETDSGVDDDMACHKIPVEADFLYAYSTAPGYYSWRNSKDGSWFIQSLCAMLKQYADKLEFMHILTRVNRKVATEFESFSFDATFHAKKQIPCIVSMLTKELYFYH
Put plainly: SAR Analysis of small molecule inhibitors of Sentrin-specific proteases (SENPs) using a Caspase-3 Selectivity assay. [Related pubchem assays (depositor defined):AID2540, AID2599, AID434973, AID489001]. The format is functional.

Assay [19] concerns the target T5, Sentrin-specific protease 7 (Homo sapiens, UniProt Q9BQF6).
T5 sequence (Q9BQF6 whole entry): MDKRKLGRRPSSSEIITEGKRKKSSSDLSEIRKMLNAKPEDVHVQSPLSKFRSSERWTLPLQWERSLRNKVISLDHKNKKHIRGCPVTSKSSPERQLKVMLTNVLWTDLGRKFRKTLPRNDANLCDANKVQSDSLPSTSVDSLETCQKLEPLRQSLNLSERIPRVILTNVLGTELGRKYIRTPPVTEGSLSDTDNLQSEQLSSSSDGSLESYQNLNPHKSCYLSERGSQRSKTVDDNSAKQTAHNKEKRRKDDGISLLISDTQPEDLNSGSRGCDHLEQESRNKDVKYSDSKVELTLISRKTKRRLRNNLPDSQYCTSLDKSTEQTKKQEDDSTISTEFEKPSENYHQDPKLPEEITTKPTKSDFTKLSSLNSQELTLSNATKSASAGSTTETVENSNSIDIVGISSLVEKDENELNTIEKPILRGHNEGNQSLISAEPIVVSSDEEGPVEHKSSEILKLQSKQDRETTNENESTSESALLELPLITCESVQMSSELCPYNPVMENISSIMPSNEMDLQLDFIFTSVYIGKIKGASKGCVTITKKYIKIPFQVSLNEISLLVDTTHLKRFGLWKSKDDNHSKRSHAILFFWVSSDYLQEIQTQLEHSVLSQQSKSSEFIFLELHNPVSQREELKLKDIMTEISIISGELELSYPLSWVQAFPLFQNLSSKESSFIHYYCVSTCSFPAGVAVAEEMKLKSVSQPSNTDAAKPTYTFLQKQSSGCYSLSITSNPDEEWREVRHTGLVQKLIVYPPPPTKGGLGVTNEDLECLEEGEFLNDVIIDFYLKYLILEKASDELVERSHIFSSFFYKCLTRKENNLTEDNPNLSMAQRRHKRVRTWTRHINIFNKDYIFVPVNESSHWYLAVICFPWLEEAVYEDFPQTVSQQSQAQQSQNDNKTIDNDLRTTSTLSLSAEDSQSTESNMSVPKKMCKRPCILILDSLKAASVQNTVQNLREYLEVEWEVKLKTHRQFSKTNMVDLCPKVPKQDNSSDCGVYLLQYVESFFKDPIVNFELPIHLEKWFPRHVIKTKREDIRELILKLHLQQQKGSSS
Briefly: inhibition of human SENP7 cleavage activity – biochemical, luminescence, set 2, SAR follow-up (AID 588600). The format is functional.

Assay [20] concerns the target T6, Sentrin-specific protease 6 (Homo sapiens, UniProt Q9GZR1).
T6 sequence (Q9GZR1 whole entry): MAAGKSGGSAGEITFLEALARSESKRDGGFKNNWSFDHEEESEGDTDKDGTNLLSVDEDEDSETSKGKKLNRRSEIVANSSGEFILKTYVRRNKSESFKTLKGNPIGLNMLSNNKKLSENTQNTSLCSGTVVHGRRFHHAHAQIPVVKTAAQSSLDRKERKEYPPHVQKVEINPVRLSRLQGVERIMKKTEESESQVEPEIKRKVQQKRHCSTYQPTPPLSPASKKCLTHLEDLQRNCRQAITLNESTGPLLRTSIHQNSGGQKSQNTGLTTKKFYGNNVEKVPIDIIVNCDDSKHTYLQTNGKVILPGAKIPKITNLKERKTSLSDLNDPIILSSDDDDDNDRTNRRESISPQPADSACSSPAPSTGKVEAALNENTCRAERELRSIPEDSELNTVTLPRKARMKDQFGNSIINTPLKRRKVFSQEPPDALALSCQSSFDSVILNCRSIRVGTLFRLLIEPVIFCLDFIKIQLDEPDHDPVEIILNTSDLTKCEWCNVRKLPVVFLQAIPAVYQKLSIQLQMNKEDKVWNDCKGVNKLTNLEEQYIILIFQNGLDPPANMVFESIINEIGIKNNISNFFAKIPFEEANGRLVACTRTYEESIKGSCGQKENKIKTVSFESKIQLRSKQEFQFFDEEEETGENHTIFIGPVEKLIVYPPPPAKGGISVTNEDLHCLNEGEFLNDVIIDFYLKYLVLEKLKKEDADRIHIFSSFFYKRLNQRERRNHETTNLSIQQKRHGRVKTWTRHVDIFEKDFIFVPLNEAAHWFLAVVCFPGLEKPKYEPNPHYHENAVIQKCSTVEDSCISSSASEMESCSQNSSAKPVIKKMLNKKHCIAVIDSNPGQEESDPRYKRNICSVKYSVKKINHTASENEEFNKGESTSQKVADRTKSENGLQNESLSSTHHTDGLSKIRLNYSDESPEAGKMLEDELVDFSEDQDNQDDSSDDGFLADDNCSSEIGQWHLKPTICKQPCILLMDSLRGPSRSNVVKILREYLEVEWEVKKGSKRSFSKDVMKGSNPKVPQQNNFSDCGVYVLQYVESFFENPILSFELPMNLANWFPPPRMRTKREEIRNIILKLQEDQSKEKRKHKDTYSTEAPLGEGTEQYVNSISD
Briefly: SAR Analysis of small molecule inhibitors of Sentrin-specific protease 6 (SENP6) using a Luminescent assay. [Related pubchem assays (depositor defined):AID2582, AID2599]. Type of assay: functional.

For assay [21], the target named is T5, Sentrin-specific protease 7. Briefly: inhibition of human SENP7 cleavage activity – biochemical, luminescence, SAR follow-up (AID 504497). Type of assay: functional.

Structures are written as SMILES. The source made the active and inactive calls.

Sequence of Glycogen synthase kinase-3 alpha (P49840 whole entry): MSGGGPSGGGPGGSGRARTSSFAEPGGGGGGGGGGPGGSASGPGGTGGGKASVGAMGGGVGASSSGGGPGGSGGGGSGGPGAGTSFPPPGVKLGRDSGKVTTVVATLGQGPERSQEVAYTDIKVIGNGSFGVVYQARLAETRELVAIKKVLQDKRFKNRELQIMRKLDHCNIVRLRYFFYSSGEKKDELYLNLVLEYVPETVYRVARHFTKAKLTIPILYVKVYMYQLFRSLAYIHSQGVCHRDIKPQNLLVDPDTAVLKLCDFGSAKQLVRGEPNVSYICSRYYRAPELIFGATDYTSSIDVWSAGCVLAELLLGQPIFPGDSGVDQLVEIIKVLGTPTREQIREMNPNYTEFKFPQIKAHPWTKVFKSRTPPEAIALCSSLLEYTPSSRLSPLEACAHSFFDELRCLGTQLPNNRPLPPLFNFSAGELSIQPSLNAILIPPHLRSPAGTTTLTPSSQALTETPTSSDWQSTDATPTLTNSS
Sequence of Glycogen synthase kinase-3 beta (P49841 whole entry): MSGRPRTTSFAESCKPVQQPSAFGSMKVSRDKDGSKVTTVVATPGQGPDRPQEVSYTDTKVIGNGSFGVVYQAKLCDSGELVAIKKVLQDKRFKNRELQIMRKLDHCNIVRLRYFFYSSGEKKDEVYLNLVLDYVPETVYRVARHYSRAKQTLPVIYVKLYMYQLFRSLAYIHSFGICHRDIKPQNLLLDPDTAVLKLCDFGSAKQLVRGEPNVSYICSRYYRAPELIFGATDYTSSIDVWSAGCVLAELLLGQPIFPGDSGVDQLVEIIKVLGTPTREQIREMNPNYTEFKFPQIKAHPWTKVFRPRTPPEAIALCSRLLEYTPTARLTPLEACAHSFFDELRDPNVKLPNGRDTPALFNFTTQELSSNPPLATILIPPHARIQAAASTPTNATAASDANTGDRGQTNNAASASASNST
Sequence of DNA topoisomerase (A0A2S9PM60 whole entry): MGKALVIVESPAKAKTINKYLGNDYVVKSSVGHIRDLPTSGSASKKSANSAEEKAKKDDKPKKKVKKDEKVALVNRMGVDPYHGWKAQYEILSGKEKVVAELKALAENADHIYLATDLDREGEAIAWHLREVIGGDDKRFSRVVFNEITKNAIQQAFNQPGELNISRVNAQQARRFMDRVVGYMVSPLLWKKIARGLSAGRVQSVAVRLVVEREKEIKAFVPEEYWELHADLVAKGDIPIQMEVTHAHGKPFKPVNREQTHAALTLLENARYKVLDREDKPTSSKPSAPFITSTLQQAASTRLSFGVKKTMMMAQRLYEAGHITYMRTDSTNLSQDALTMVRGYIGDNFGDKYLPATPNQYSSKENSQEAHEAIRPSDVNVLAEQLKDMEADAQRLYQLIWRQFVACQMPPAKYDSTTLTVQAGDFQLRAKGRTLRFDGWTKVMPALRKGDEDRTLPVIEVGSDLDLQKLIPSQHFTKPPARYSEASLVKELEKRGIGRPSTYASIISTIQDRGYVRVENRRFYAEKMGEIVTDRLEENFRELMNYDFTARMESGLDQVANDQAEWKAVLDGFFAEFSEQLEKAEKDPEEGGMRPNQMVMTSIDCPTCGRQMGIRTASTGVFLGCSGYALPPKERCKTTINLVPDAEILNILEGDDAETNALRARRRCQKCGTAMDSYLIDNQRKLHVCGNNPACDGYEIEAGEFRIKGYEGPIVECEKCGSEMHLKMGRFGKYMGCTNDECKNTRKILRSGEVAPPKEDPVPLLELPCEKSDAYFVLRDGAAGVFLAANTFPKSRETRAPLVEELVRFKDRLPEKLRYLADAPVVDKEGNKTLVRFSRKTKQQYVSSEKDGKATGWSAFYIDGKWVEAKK

Regarding `Nc1ccc2nc(-c3ccccc3)cnc2c1`, the IC50 in the assay on CHO was > 49.7 µM (inactive).

In the case of `CCCn1nc(NC(=O)C(C)C)c2cc3cc(OC)ccc3nc21`, the AC50 (in general, the concentration giving half of the maximal activity seen) is 38.5 µM (active) in assay [1] and 3.25 µM (active) in assay [2].

`CCCCN1CCc2cc(/C=C3\C(=O)NC(=S)N(C4CCCCC4)C3=O)ccc21`: the IC50 in assay [3] and in [4] was > 99 µM (inactive) in each case.

Turning to `Cc1ccc(S(=O)(=O)N(C)C[C@@H]2Oc3c(NC(=O)Nc4cccc5ccccc45)cccc3C(=O)N([C@@H](C)CO)C[C@H]2C)cc1`, the AC50 was 31.7 µM (active) with INS1 [5], 32.7 µM (active) in [6], 48.3 µM (active) in the assay on INS1 [7] and 69.6 µM (active) in the assay with INS1 [8].

With `CCN(CC)c1ccc(NC(=O)CCS(=O)(=O)c2ccc(Br)cc2)c(C)c1`, the half-maximal effective concentration (EC50) (as a rule, the concentration giving half of the maximal effect) in assay [9] was 5.01 µM (active); in assay [10], 0.426 µM (active). In addition, the IC50 in assay [11] is 3.04 µM (active); in assay [12], 8.64 µM (active).

On to `O=C(CSc1nc2c(c(=O)[nH]1)CCCC2)NC1CCCCC1`, for which the half-maximal cytotoxic concentration (CC50) in assay [13], in assay [14] and in [15] was > 100 µM (active) in each case.

Turning to `Cn1cc(C(=O)OCC2CCN(CCNS(C)(=O)=O)CC2)c2ccccc21`, the AC50 in [16] is 35.5 µM (inconclusive).

In the case of `COc1cc2nc3n(c(=O)c2cc1OC)-c1cc2ccccc2cc1C(=O)NC3Cc1ccccc1` (centres undefined), the AC50 at DNA topoisomerase was 11.8 µM (active).

`Cc1cccc(-c2noc(/C=C/c3ccccc3)n2)c1`: the IC50 is > 99 µM (inactive) in assay [17]; 3.48 µM (active) in assay [18]; 11 µM (active) on Caspase-3; 4.14 µM (active) in assay [19]; 17 µM (active) in assay [20]; 4.9 µM (active) in [21].

Source of the values: ChEMBL document CHEMBL1201862, “PubChem BioAssay data set” (2004).
